Our source for the IC50 and melting point values is US20050049245A1, “Heteroaryl-ethanolamine derivatives as antiviral agents” (priority 2002, published 2005).

One series addresses T1, HCMV polymerase (Human cytomegalovirus, UniProt P08546).
T1 construct: made in house; host or cells: recombinant baculovirus-infected SF-9 cells
The series can be described thus: HCMV polymerase scintillation proximity assay (SPA). It is filed as biochemical. The following applies: HCMV polymerase, SPA; read-out: Polymerase IC50 HCMV. The protocol: The HCMV polymerase assay is performed using a scintillation proximity assay (SPA) as described in several references, such as N. D. Cook, et al., Pharmaceutical Manufacturing International, pages 49-53 (1992); KY Takeuchi, Laboratory Practice, September issue (1992); U.S. Pat. No. 4,568,649 (1986); which are incorporated by reference herein. Reactions are performed in 96-well plates. The assay is conducted in 100 yl volume with 5.4 mM HEPES (pH 7.5), 11.7 mM KCl, 4.5 mM MgCl2, 0.36 mg/ml BSA, and 90 nM ^3H-dTTP. Assays are run with and without CHAPS, (3-[(3-Cholamidopropyl)-dimethylammonio]-1-propane-sulfonate) at a final concentration of 2 mM. HCMV polymerase is diluted in enzyme dilution buffer containing 50% glycerol, 250 mM NaCl, 10 mM HEPES (pH 7.5), 100 μg/ml BSA, and 0.01% sodium azide. The HCMV polymerase, which is expressed in recombinant baculovirus-infected SF-9 cells and purified according to literature procedures, is added at 10% (or 10 μl) of the final reaction volume, i.e., 100 μl. Compounds are diluted in 50% DMSO and 10 μl are added to each well. Control wells contain an equivalent concentration of DMSO. Unless noted otherwise, reactions are initiated via the addition of 6 nM biotinylated poly(dA)-oligo(dT) template/primer to reaction mixtures containing the enzyme, substrate, and compounds of interest. Plates are incubated in a 25° C. or 37° C. H2O bath and terminated via the addition of 40 μl/reaction of 0.5 M EDTA (pH 8) per well. Reactions are terminated within the time-frame during which substrate incorporation is linear and varied depending upon the enzyme and conditions used, i.e., 30 min. for HCMV polymerase. Ten (10) μl of streptavidin-SPA beads (20 mg/ml in PBS/10% glycerol) are added following termination of the reaction. Plates are incubated 10 min. at 37° C., then equilibrated to room temperature, and counted on a Packard Topcount. Linear regressions are performed and IC50's are calculated using computer software.
A modified version of the above HCMV polymerase assay is performed as described above, but with the following changes: Compounds are diluted in 100% DMSO until final dilution into assay buffer. In the previous assay, compounds are diluted in 50% DMSO. 4.5 mM Dithiothreitol (DTT) is added to the polymerase buffer.
All results are listed as Polymerase IC50 ([…]) values. In Table 1, the term “n.d.” refers to activity data not determined.
On the technique in general: SPA uses beads or plates that emit light when radiolabelled molecules are held near them.

Another series concerns the target HSV polymerase (Human herpesvirus 1, UniProt P04293). The series can be described thus: HSV polymerase assay (Table 1). It counts as biochemical. The following applies: HSV polymerase; read-out: Polymerase IC50 HSV.
The target of the next series is VZV polymerase (Varicella-zoster virus, UniProt P09252). The series can be described thus: VZV polymerase assay (Table 1). It is filed as biochemical. The following applies: VZV polymerase; read-out: Polymerase IC50 VZV.
Chain of VZV polymerase (P09252 whole entry): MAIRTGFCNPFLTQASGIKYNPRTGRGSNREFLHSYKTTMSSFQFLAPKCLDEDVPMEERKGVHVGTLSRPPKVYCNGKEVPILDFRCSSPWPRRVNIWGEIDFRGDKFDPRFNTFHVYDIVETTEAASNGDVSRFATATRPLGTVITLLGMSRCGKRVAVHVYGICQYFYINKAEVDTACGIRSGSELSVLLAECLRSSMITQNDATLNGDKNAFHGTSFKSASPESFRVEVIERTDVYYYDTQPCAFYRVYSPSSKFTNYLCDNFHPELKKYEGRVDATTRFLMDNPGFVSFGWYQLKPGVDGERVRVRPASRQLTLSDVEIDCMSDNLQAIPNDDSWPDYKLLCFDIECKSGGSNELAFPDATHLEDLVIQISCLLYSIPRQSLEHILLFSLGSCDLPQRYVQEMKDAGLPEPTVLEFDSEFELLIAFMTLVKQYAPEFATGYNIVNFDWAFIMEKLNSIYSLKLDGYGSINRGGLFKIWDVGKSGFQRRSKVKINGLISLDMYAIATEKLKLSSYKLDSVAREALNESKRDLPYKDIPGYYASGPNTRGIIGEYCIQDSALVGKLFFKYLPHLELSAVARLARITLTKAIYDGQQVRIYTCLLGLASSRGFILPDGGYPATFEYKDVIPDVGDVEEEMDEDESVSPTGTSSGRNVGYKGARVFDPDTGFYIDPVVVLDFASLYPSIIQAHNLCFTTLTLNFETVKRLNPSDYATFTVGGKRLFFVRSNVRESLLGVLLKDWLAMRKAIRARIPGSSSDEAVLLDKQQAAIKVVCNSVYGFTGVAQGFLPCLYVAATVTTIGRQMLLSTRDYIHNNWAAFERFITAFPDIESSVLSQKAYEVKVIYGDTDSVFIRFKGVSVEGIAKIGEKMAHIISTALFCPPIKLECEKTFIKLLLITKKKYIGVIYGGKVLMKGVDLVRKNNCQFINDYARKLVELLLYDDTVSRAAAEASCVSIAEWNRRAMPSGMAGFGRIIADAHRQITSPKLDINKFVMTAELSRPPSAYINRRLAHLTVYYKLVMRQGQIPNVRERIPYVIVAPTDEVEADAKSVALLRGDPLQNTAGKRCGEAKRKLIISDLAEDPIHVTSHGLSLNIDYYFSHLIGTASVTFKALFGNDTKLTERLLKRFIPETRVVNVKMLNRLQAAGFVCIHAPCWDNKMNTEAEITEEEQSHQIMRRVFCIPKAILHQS

Structures are written as SMILES.

Chain of HSV polymerase (P04293 whole entry): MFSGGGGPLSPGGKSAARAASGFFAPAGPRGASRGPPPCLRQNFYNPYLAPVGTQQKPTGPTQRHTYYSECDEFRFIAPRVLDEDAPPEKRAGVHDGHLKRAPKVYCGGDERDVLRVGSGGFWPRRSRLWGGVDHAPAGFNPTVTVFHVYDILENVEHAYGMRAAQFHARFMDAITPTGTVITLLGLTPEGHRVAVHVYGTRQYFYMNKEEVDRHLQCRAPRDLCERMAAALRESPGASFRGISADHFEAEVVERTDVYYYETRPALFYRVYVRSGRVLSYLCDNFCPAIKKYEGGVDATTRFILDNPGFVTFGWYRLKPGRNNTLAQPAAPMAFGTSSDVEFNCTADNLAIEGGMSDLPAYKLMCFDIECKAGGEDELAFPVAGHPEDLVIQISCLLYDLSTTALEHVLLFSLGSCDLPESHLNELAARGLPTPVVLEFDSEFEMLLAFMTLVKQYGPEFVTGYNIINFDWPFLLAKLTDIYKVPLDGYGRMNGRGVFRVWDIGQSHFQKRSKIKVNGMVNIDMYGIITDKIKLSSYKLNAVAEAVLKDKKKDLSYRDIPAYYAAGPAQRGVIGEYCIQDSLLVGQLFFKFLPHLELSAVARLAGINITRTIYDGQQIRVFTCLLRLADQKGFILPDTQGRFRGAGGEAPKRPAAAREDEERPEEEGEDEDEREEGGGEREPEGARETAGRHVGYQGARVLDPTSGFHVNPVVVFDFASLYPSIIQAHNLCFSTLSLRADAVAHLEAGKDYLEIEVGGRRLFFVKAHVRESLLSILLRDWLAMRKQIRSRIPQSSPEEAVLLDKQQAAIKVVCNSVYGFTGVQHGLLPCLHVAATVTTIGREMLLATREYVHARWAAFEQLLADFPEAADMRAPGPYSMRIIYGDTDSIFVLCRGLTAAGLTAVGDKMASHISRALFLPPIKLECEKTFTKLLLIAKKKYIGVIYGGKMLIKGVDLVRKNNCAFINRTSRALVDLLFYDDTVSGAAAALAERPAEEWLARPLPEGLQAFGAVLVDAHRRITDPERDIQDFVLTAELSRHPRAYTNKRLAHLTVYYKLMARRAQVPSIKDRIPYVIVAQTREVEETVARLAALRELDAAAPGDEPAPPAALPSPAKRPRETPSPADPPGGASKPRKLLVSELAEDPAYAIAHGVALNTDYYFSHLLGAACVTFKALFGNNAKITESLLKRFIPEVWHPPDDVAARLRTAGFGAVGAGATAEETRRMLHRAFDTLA
T1 sequence (P08546 whole entry): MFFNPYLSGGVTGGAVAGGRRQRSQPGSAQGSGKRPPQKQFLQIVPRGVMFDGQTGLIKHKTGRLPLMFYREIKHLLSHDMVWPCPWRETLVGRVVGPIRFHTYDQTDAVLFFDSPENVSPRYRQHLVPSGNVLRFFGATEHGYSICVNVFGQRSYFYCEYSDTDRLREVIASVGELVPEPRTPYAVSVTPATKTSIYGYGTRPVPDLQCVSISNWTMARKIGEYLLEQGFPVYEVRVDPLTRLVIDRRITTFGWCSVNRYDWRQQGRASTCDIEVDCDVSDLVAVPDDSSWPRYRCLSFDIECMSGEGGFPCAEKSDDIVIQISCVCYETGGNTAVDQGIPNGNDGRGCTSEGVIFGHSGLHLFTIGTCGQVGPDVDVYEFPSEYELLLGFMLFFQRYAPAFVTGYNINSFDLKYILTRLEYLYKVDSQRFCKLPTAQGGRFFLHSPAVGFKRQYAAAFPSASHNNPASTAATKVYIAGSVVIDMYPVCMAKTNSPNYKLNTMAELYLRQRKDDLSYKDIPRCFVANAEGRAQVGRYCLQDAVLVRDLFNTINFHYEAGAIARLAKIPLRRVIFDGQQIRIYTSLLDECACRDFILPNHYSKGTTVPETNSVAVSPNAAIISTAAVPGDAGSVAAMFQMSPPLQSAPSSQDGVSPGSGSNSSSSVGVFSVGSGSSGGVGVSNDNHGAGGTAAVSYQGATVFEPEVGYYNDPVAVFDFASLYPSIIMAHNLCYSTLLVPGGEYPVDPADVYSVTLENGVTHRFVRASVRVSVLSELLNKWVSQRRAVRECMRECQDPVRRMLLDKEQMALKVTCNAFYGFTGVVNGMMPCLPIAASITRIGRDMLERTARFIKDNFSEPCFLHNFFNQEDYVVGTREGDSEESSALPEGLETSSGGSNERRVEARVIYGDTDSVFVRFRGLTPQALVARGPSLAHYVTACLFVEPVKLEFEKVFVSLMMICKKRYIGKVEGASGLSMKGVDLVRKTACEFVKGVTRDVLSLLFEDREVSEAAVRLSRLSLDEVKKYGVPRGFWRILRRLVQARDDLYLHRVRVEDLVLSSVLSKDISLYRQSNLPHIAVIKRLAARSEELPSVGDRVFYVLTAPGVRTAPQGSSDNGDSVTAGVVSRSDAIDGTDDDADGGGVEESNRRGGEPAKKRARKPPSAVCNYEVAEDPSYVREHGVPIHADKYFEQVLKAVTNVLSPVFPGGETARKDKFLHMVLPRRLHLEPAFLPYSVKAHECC

Take `Cc1cc(C(O)CN(C)Cc2cc3c(=O)c(C(=O)NCc4ccc(Cl)cc4)cn(C)c3s2)oc1C` (racemic) [Example 30, rac-N-(4-Chlorobenzyl)-2-(((2-(4,5-dimethyl-2-furyl)-2-hydroxyethyl)(methyl)-amino)methyl)-7-methyl-4-oxo-4,7-dihydrothieno[2,3-b]pyridine-5-carboxamide]: the melting point was 166 to 167 °C. Also, the half-maximal inhibitory concentration (IC50) on HCMV polymerase was determined as 0.14 µM. For the same compound, at HSV polymerase, the IC50 turned out to be 0.62 µM. Moreover, at VZV polymerase, the 50% inhibitory concentration (IC50) was determined as 0.2 µM.

In general, IC50 refers to the concentration needed to halve the response being measured. A word on the melting point: it is the temperature, or range, at which the solid turns liquid.
